Data from patent US20100278934A1, “METHODS AND COMPOSITIONS FOR CONSERVING AND/OR PREPARING AN ORGAN OR TISSUE FOR TRANSPLANT” (Regenerx Biopharmaceuticals Inc., priority 2006, published 2010).

Columns and labels:
[1] = system: Human hepatic stellate cells HSC; assay: RT-PCR analysis of mRNA expression in human hepatic stellate cells cultured with Tβ4; format: cell-based
Method: Human hepatic stellate cells HSC were obtained from a liver cell mixture purchased from ADMET technologies after separation on an OptiPrep® Density Gradient Medium (Sigma). They were cultured until confluent and then plated at a density of 250,000 cells/60-mm dish and cultured in MEM supplemented with 10% bovine fetal serum, 1% non-essential amino acids and antibiotics. The cells were maintained in culture for approximately 48 hours and when semi-confluent they were serum-starved overnight using MEM supplemented with 1% albumin, antibiotics and 1% non-essential amino acids. RNA was extracted with Trizol (Invitrogen) and RT-PCR performed using primers. The expression of GAPDH was used as a control. All the experiments were performed in duplicate.
In many instances, the increase was dose dependent. […] The expression of another marker of HSC differentiation, namely PDGF-β receptor, was inhibited in a dose-dependent manner (75% with 1 μg/ml of Tβ4).

[2] = system: Co-cultures of rat HSC and Human hepatocytes; assay: Co-cultures of rat HSC and human hepatocytes with Tβ4, hepatocyte count after one week; format: cell-based; settings: greater than 100 ng/ml of Tβ4; one week in culture
Method: Hepatocyte Growth Factor (HGF) is a trophic factor for hepatocytes. […] Co-cultures of rat HSC and Human hepatocytes are prepared. Controls are incubated with the regular hormonally-defined medium used for hepatocytes. Experimental cultures receive greater than 100 ng/ml of Tβ4 in the same culture medium. Cells are harvested after one week using collagenase and trypsin. The hepatocytes are separated from the HSC by low speed centrifugation and the cells counted and used for total RNA extraction. […] The purity of the cell fractions are determined after staining with anti-human albumin antibodies (rat HSC are negative). RNA is used for RT-PCR and the expression of liver specific genes analyzed using human primers. Rat primers are used to determine the degree of contamination of rat HSC.

[3] = HSC cultured for 24 hours with different concentrations of Tβ4, RT-PCR, GAPDH control
[4] = HSC cultured for 24 hours, RT-PCR

Substance: thymosin beta 4 [Tβ4]
- inhibition of expression of PDGF-β receptor ([1]; 1 μg/ml of Tβ4, HSC cultured for 24 hours, dose-dependent): 75%
- increase in expression of HGF mRNA ([1]; 1 mg/ml of Tβ4, HSC cultured for 24 hours): 4 fold
- increase in expression of GSK 3β mRNA [1, 3]: 2.5 fold
- increase in expression of α-SMA mRNA [1, 3]: 4 fold
- increase in expression of β-catenin mRNA [1, 3]: 3 fold
- Tβ4 concentration giving maximal expression of α-SMA [1, 4]: 1 µg/mL
- Tβ4 concentration giving maximal increase in β-catenin mRNA [1, 4]: 1 ng/mL
- hepatocyte proliferation / number [2]: proliferate and increase in number
